# Literature values as cited in US20250195352A1, “LIPID FORMULATIONS CONTAINING BIOACTIVE FATTY ACIDS AND OTHER BIOACTIVE AGENTS” (Sciadonics, Inc., priority 2022, published 2025).
# Columns and labels:
# PPAR receptors = details: unmetabolized SA; Berger 2002
# [1] = test system: cultured human skin keratinocytes; details: purified SA taken up by cultured human skin keratinocytes; Berger 2002
compound,measurement,setting,value
"CCCCCC=CCC=CCCCCC=CCCCC(=O)O [SA, 5,11,14-eicosatrienoic acid]",binding to PPAR receptors,PPAR receptors,does not bind
same,ARA levels,[1],reduced
same,prostaglandin E2 (PGE2) levels,[1],reduced
